{"source": "patent US9790563B2", "about": "“Method for treating liver cancer” (priority 2014, dated 2017)", "key": {"[1]": {"system": "HBx in Hep3Bx cells", "test": "siRNA silencing of HBx, Western blotting (FIG. 9e)", "type": "cell-based", "settings": "4-day posttransfection", "experimental": "HBx-specific siRNA with a sequence as set forth in SEQ ID NO: 9 and a control siRNA with a sequence as set forth in SEQ ID NO: 10 are used to further confirm the relationship between HBx and ErbB3 in the Hep3Bx cells.\n(§1) 5 μL of 20 μM siRNA is mixed with 1 μL of the transfection reagent and 100 μL of the medium without FBS. 30 minutes later, the siRNA-containing mixture is added into the medium-discarded Hep3Bx cells with a final volume of 1 mL. After incubating for 5 hours, the FBS containing medium as added to a final volume of 2 mL. The following experiment is performed 4-day posttransfection."}, "[2]": {"system": "myc-HBx-transfected Hep3B cells (group D2)", "test": "crystal violet staining (FIG. 4c)", "type": "cell-based", "settings": "1 μM, 120 hours", "experimental": "(§2) The plasmids are transfected into the Hep3B cells as the following procedure: 1 μg of the plasmids are mixed with 1 μL of TransIT2020 transfection reagent, and the mixture is incubated with the fresh medium without FBS at room temperature for 30 minutes to obtain the vector-transfected Hep3B cells (group D1) and the myc-HBx-transfected Hep3B cells (group D2).\nMoreover, 1×10^5 cells of the vector-transfected Hep3B cells (group D1) and the myc-HBx-transfected Hep3B cells (group D2) are further treated with 1 μM of lapatinib. Also, DMSO is used to treat the vector-transfected Hep3B cells (group D1) and the myc-HBx-transfected Hep3B cells (group D2) as a solvent control. After culturing at 37° C. for 120 hours, the supernatants are removed and 10 mg/mL of crystal violet solution dissolving in 30% ethanol is added to the cultured Hep3B cells for 15 to 30 minutes. Crystal violet solution can stain the nuclei of the living cells adhering to the petri dishes."}, "[3]": {"system": "vector-transfected HepG2 cells (group F1)", "test": "crystal violet assay (FIG. 6c)", "settings": "1 μM, 120 hours", "text": "(§3) The genome of HBV contains 4 known genes including genes C, X, P and S. To define the role of HBx in cytotoxicity of lapatinib to liver cancer, the plasmids being thankful presents from Dr. Seishi Murakami (J. Virology, 79 (9): 5548-5556, 2005) are used to transiently transfect into the Hep3B cells in the trial (F). […] The plasmid containing an ochre termination signal (CAA to UAA) after codon 7 (at codon 8) in the HBx ORF is used as the group F3. The plasmids are transiently transfected into the Hep3B and HepG2 cells as described above.\n(§4) The transfected Hep3B and HepG2 cells are treated with DMSO or 1 μM of lapatinib for 120 hours and the DMSO- or lapatinib-treated cells are analyzed by crystal violet assay."}, "[4]": {"system": "wild-type HBV genome-transfected Hep3B cells (group F2)", "test": "crystal violet assay (FIG. 6c)", "settings": "1 μM, 120 hours", "text": "as §3, §4"}, "[5]": {"system": "vector-transfected Hep3B cells (group F1)", "test": "crystal violet assay (FIG. 6c)", "settings": "1 μM, 120 hours", "text": "as §3, §4"}, "[6]": {"system": "HBx-minus mutant-transfected Hep3B cells (group F3)", "test": "crystal violet assay (FIG. 6c)", "settings": "1 μM, 120 hours", "text": "as §3, §4"}, "[7]": {"system": "wild-type HBV genome-transfected HepG2 cells (group F2)", "test": "crystal violet assay (FIG. 6c)", "settings": "1 μM, 120 hours", "text": "as §3, §4"}, "[8]": {"system": "HBx-minus mutant-transfected HepG2 cells (group F3)", "test": "crystal violet assay (FIG. 6c)", "settings": "1 μM, 120 hours", "text": "as §3, §4"}, "[9]": {"system": "vector-transfected Hep3B cells (group D1)", "test": "cell viability after lapatinib treatment (FIG. 4b)", "type": "cell-based"}, "[10]": {"system": "Hep3Bx cells", "test": "MTT cytotoxicity assay", "type": "cell-based", "settings": "72 hours, 0-10 μM", "experimental": "(§5) In the following trials, liver cancer cells including Hep3B, Hep3Bx, HepG2 and HepG2x cells are used. The Hep3Bx and HepG2x cells, derived from the Hep3B and HepG2 cells, respectively, are cell lines constitutively expressing HBx. All of the liver cancer cells are incubated in a 37° C. incubator. DME/F12 with 10% FBS is used as media for incubating the cell lines. Moreover, lapatinib is dissolved in DMSO with different concentration.\n(§6) Cytotoxicity of lapatinib to the Hep3B and Hep3Bx cells is monitored using the MTT 3-(4,5-dimethylthiazol-2-yl)-2,5-diphenyltetrazolium bromide assay. First, the Hep3B and Hep3Bx cells are inoculated in a 96-well pate with 5,000-10,000 cells per well. After incubating at 37° C. for 24 hours, 0, 0.1, 0.5, 1, 5 and 10 μM of lapatinib is added into the medium for further incubation at 37° C. for 72 hours, respectively. 0.025 mL of MTT solution ([…] of MTT dissolved in 1 mL of 1×PBS) is added into 0.1 mL of the medium, followed by incubating at 37° C. for 4 hours. Succinate dehydrogenase, bound to the inner mitochondrial membrane of the living cells, is capable of reducing MTT to its insoluble formazan, which has a purple color. Therefore, after removing the supernatants, 0.1 mL of DMSO is added to dissolve the insoluble formazan into a colored solution."}, "[11]": {"system": "Hep3B cells", "test": "MTT cytotoxicity assay", "type": "cell-based", "settings": "72 hours, 0-10 μM", "experimental": "as §5, §6"}, "[12]": {"system": "Hep3Bx cells", "test": "Western blotting of cleaved PARP and cleaved Caspase-3", "type": "cell-based", "settings": "higher concentration", "experimental": "(§7) Western blotting is performed with anti-PARP antibody (1: 1,000, purchased from Cell Signaling) and anti-Caspase-3 antibody (1: 1,000, purchased from Cell Signaling). The anti-Actin antibody (1: 10,000, purchased from Sigma) is used as an internal control."}, "[13]": {"system": "Hep3B cells", "test": "Western blotting of cleaved PARP and cleaved Caspase-3", "type": "cell-based", "experimental": "as §7"}, "[14]": {"system": "ErbB3-specific siRNA-treated Hep3Bx cells", "test": "crystal violet staining (FIG. 12b)", "type": "cell-based", "settings": "ErbB3-specific siRNA-treated Hep3Bx cells compared to control siRNA-treated, 120 hours", "experimental": "as §1\n(§8) ErbB3-specific siRNA with a sequence as set forth in SEQ ID NO: 13 is used to silence expression of ErbB3 in the Hep3Bx cells. The control siRNA with a sequence as set forth in SEQ ID NO: 10 is used as a control."}, "[15]": {"system": "ErbB3-transfected Hep3B cells (group K2)", "test": "cell numbers by light and fluorescence microscopy (FIG. 11b-d)", "type": "cell-based", "settings": "120 hours", "text": "That is, pDSRed vector is used as a control (group K1) and the ErbB3 protein-expressing plasmid constructed with primers with sequences set forth in SEQ ID NOs. 11 and 12 is used as the group K2.\nCell numbers of the vector- or ErbB3-transfected Hep3B cells are monitored using a fluorescence microscope with an excitation wavelength of 535 nm. […] The cell number of the lapatinib-treated vector-transfected Hep3B cells divides by the cell number of the DMSO-treated vector-transfected Hep3B cells and the cell number of the lapatinib-treated ErbB3-transfected Hep3B cells divides by the cell number of the DMSO-treated ErbB3-transfected Hep3B cells. As a result, after lapatinib treatment for 120 hours, the quantitative cell viability of ErbB3-transfected Hep3B cells is merely smaller than 20%. That is, ErbB3 transfection induces […] of Hep3B cells to lapatinib."}, "[16]": {"system": "myc-HBx-transfected Hep3B cells (group D2)", "test": "cell viability after lapatinib treatment (FIG. 4b)", "type": "cell-based", "text": "(§9) In the trial (D) and (E), HBx is introduced into the Hep3B cells via transient transfection and virus transduction, respectively. Cytotoxicity of lapatinib to the HBx-transfected or HBx-virus transduced Hep3B cells is further monitored by the crystal violet assay.\nThat is, pcDNA6/myc-His A vector is used as a control (group D1) and the C-terminal myc-tagged HBx plasmid expressing myc-HBx expression protein constructed with primers with sequences set forth in SEQ ID NOs. 5 and 6 is used as the group D2.\nas §2"}, "[17]": {"system": "Hep3Bx cells", "test": "sub-G1 phase arrest by PI flow cytometry", "type": "cell-based", "settings": "120 hours, different concentrations", "experimental": "(§10) The Hep3B and Hep3Bx cells are inoculated in 3.5-cm petri dishes, respectively. After the Hep3B and Hep3Bx cells cover 50 to 60% of the 3.5-cm petri dishes, 3 mL of fresh medium with different concentrations of lapatinib is added, followed by incubation at 37° C. for 120 hours. The cultured Hep3B and Hep3Bx cells are resuspended in 3 mL of 75% ethanol in a concentration of 1.5×10^5 cells per mL and fixed at −20° C. for at least 2 hours. Finally, the fixed Hep3B and Hep3Bx cells are mixed with 0.5 mL of PI buffer at 37° C. for 30 minutes. The sub-G1 phase arresting cells with a DNA content less than 2n, which are usually the result of apoptotic DNA fragmentation are detected and measured by a sub-G1 peak in the fluorescence histogram of flow cytometry."}, "[18]": {"system": "Hep3B cells", "test": "sub-G1 phase arrest by PI flow cytometry", "type": "cell-based", "settings": "120 hours, different concentrations", "experimental": "as §10"}, "[19]": {"system": "vector-virus transduced Hep3B cells (group E1)", "test": "cell viability after lapatinib treatment (FIG. 5b)", "type": "cell-based", "text": "as §9\n(§11) That is, pDEST-V5 vector is used as a control (group E1) and the HBx plasmid expressing HBx expression protein constructed with primers with sequences set forth in SEQ ID NOs. 7 and 8 is used as the group E2.\n(§12) The plasmids are virus transduced into the Hep3B cells as the following procedure: the Hep3B cells are inoculated in 3.5-cm petri dishes with concentration of 2×10^5 cells per petri dish. After incubating for 24 hours, virus with 100 MOI is used to transduce the plasmids into the cultured Hep3B cells. Fresh media are replaced after 16 hours and the following experiments are performed 4 days later."}, "[20]": {"system": "HBx-virus transduced Hep3B cells (group E2)", "test": "cell viability after lapatinib treatment (FIG. 5b)", "type": "cell-based", "text": "as §9, §11, §12"}, "[21]": {"system": "vector-transfected Hep3B cells (group D1)", "test": "crystal violet staining (FIG. 4c)", "type": "cell-based", "settings": "1 μM, 120 hours"}, "[22]": {"system": "liver cancers", "settings": "clinical trial; cited from earlier work"}, "[23]": {"system": "ErbB3 in Hep3Bx cells", "test": "siRNA silencing of ErbB3 (FIG. 12a)", "type": "cell-based", "experimental": "as §1, §8"}}}
{"compound": "HBx-specific siRNA: HBx-specific siRNA with a sequence as set forth in SEQ ID NO: 9 (GGTTAAAGGTCTTTGTATT; listed as DNA, chemistry not given here)", "values": [{"measurement": "protein level of ErbB3", "setting": "[1]", "result": "decreased protein level of ErbB3"}, {"measurement": "protein level of HBx", "setting": "[1]", "result": "decreases protein level of HBx"}]}
{"compound": "CS(=O)(=O)CCNCc1ccc(-c2ccc3ncnc(Nc4ccc(OCc5cccc(F)c5)c(Cl)c4)c3c2)o1", "note": "[lapatinib]", "values": [{"measurement": "cytotoxicity (crystal violet staining)", "setting": "[2]", "result": "significant cytotoxicity"}, {"measurement": "cytotoxicity (crystal violet assay)", "setting": "[3]", "result": "slight cytotoxicity"}, {"measurement": "cytotoxicity (crystal violet assay)", "setting": "[4]", "result": "obvious cytotoxicity"}, {"measurement": "cytotoxicity (crystal violet assay)", "setting": "[5]", "result": "no cytotoxicity"}, {"measurement": "cytotoxicity (crystal violet assay)", "setting": "[6]", "result": "no cytotoxicity"}, {"measurement": "cytotoxicity (crystal violet assay)", "setting": "[7]", "result": "significant cytotoxicity"}, {"measurement": "cytotoxicity (crystal violet assay)", "setting": "[8]", "result": "slight cytotoxicity"}, {"measurement": "concentration at which lapatinib shows cytotoxicity", "setting": "[9]", "result": 5000, "unit": "nM"}, {"measurement": "lapatinib concentration at which cells show intolerance", "setting": "[10]", "result": "more than 0.1 μM"}, {"measurement": "lapatinib concentration at which cells show intolerance", "setting": "[11]", "result": "more than 5 μM"}, {"measurement": "level of cleaved PARP and cleaved Caspase-3", "setting": "[12]", "result": "higher level of cleaved PARP and cleaved Caspase-3"}, {"measurement": "level of cleaved PARP and cleaved Caspase-3", "setting": "[13]", "result": "does not increase the level of cleaved PARP and cleaved Caspase-3"}, {"measurement": "tolerance to lapatinib (crystal violet staining)", "setting": "[14]", "result": "intolerance to lapatinib"}, {"measurement": "cell numbers (light microscopy)", "setting": "[15]; ErbB3-transfected Hep3B cells (group K2), in comparison to vector-transfected cells", "result": "reduction of cell numbers"}, {"measurement": "quantitative cell viability", "setting": "[15]; ErbB3-transfected Hep3B cells, lapatinib-treated cell number divided by DMSO-treated cell number, fluorescence microscope", "result": "smaller than 20%"}, {"measurement": "concentration at which lapatinib shows cytotoxicity", "setting": "[16]", "result": 1000, "unit": "nM"}, {"measurement": "sub-G1 phase arrest", "setting": "[17]", "result": "the higher the treating concentration is, the more sub-G1 phase arresting cells are observed"}, {"measurement": "sub-G1 phase arrest", "setting": "[18]", "result": "does not trigger sub-G1 phase arrest"}, {"measurement": "cytotoxicity", "setting": "[19]", "result": "no cytotoxicity"}, {"measurement": "cells survival", "setting": "[20]", "result": "about 60%"}, {"measurement": "cytotoxicity", "setting": "[20]", "result": "significant cytotoxicity"}, {"measurement": "cytotoxicity (crystal violet staining)", "setting": "[21]", "result": "slight cytotoxicity"}, {"measurement": "effectiveness in patients with liver cancers", "setting": "[22]", "result": "effective for only part of patients with liver cancers"}]}
{"compound": "ErbB3-specific siRNA: ErbB3-specific siRNA with a sequence as set forth in SEQ ID NO: 13 (GCGATGCTGAGAACCAATA; listed as DNA, chemistry not given here)", "values": [{"measurement": "mRNA level of ErbB3", "setting": "[23]", "result": "decreases mRNA level of ErbB3"}, {"measurement": "protein level of ErbB3", "setting": "[23]", "result": "decreased protein level of ErbB3"}]}
